Series [1] addresses T1, human recombinant Met kinase (Homo sapiens, UniProt P08581).
T1 construct: purchased Cell Signalling Technology, Beverly, Mass
Nature of the series: Colorimetric determination of c-Met kinase activity (HTScan Met Kinase Assay Kit). The class given is biochemical. Particulars: for inhibition at 0.1 µM: 100 nM (cells without *), read-out: c-Met Enzyme % inhibition @ 100 nM; for inhibition: cells marked *: tested @ 300 nM, read-out: c-Met Enzyme % inhibition. In short, it runs like this:
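Human recombinant Met kinase was preincubated with compound for 5 min at room temperature, then reacted with ATP and biotinylated peptide for 30 min; EDTA stop. Phosphopeptide captured on streptavidin and detected with phospho-tyrosine mAb and europium anti-mouse IgG by time-resolved fluorescence (340/615 nm). Reported as % inhibition or IC50.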

Series [2] has as its target T1, human recombinant Met kinase. The description is as above. The class given is biochemical. Conditions: read-out: c-Met Enzyme IC50.
The subject of a further series is MKN-45. The experiment in a line: Inhibition of MKN-45 proliferation (MTT). The class given is cell-based, human. Particulars: Homo sapiens, MKN-45 proliferation; for inhibition at 0.1 µM: 100 nM, read-out: MKN45 % inhibition @ 100 nM; for GI50: read-out: MKN45 GI50. In short, it runs like this: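 High-Met human gastric adenocarcinoma MKN-45 cells plated on day 1 and exposed to compound from day 2. Viability measured by MTT dye reduction on day 5; output given as % inhibition at 100 nM and GI50.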

Structures are written as SMILES. Like-named read-outs stand apart in the source and are kept apart here.

T1 sequence (P08581 25-1390): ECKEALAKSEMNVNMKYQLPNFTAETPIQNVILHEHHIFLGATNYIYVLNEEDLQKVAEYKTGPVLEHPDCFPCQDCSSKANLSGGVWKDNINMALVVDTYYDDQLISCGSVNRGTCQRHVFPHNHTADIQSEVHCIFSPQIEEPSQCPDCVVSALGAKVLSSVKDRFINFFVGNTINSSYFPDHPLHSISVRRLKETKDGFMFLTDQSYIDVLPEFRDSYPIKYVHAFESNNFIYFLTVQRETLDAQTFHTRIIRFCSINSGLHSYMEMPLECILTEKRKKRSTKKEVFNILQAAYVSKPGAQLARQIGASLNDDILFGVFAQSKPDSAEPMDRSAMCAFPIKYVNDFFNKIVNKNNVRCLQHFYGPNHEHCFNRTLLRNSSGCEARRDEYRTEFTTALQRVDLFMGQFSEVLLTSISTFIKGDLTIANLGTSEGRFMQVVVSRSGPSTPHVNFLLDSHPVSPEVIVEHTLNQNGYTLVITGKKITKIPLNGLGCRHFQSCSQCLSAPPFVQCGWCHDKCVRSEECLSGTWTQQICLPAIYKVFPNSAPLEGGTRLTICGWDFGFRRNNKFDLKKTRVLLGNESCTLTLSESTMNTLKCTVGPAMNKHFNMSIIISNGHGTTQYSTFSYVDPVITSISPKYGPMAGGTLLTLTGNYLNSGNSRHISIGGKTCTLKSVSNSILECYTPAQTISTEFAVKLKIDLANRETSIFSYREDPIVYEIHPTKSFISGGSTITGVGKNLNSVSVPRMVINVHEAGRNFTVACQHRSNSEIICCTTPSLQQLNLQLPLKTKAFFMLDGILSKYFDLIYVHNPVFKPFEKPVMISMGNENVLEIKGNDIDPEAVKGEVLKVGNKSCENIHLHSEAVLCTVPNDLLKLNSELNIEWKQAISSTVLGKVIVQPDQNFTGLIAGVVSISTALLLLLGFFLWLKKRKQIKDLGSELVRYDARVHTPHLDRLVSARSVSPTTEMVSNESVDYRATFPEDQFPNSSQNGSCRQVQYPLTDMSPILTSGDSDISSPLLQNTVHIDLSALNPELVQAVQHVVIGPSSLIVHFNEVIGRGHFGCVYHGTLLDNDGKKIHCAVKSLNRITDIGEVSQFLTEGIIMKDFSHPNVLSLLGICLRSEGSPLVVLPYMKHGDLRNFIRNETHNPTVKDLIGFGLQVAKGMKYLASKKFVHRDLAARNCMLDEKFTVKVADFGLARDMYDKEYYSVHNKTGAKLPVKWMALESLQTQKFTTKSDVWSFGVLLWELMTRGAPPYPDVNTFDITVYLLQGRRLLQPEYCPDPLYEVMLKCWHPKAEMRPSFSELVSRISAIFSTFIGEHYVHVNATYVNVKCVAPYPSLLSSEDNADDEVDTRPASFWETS

What is called inhibition is the relative decrease from the control value, in per cent. In general, IC50 refers to the concentration at which inhibition is half-maximal. What is called melting point is the temperature, or range, at which the solid turns liquid. As a reminder, the GI50 is the concentration at which growth is held to half of that of the control. For `O=C(NOCCO)c1ccc(-c2ccc3nnn(Cc4ccc5ncccc5c4)c3n2)cc1F` [Example 10, 2-fluoro-N-(2-hydroxyethoxy)-4-(3-(quinolin-6-ylmethyl)-3H-[1,2,3]triazolo[4,5-b]pyridin-5-yl)benzamide], the melting point lay in the range of 200 to 203 °C. Moreover, in series [1] (Table 4A), the inhibition at 0.1 µM lay within 75 to 100%. In series [2] (Table 4A), the IC50 fell in the range of 25 to 50 nM. Besides, in the series with MKN-45 (MKN-45, Table 4A), the inhibition at 0.1 µM is 75 to 100% and the 50% growth inhibitory concentration (GI50) was in the range of 25 to 50 nM.
On to `CC(=O)OCCONC(=O)c1ccc(-c2ccc3nnn(Cc4ccc5ncccc5c4)c3n2)cc1Cl` [Example 11, 2-(2-chloro-4-(3-(quinolin-6-ylmethyl)-3H-[1,2,3]triazolo[4,5-b]pyridin-5-yl)benzamidooxy)ethyl acetate], for which the melting point was in the range of 168 to 170 °C. Further, the inhibition at 0.1 µM in series [1] (Table 4A) is 75 to 100%.
In turn, `C[C@H](N)C(=O)OCCONC(=O)c1ccc(-c2ccc3nnn(Cc4ccc5ncccc5c4)c3n2)cc1Cl` [Example 13, (S)-2-(2-chloro-4-(3-(quinolin-6-ylmethyl)-3H-[1,2,3]triazolo[4,5-b]pyridin-5-yl)benzamidooxy)ethyl 2-aminopropanoate] had a melting point of 175 to 177 °C. In series [1] (Table 4A), the inhibition at 0.1 µM lay in the range of 75 to 100%.
In the same order, the values of `CC(C)(C)C(=O)OCCONC(=O)c1ccc(-c2ccc3nnn(Cc4ccc5ncccc5c4)c3n2)cc1Cl` [Example 14, 2-(2-chloro-4-(3-(quinolin-6-ylmethyl)-3H-[1,2,3]triazolo[4,5-b]pyridin-5-yl)benzamidooxy)ethyl pivalate] are 130 to 133 °C and 75 to 100%.
With `CC(C)C(=O)OCCONC(=O)c1ccc(-c2ccc3nnn(Cc4ccc5ncccc5c4)c3n2)cc1Cl` [Example 15, 2-(2-chloro-4-(3-(quinolin-6-ylmethyl)-3H-[1,2,3]triazolo[4,5-b]pyridin-5-yl)benzamidooxy)ethyl isobutyrate], the melting point is 115 to 118 °C. Besides, the inhibition at 0.1 µM in series [1] (Table 4A) was 75 to 100%.
The matching figures for `O=C(CNC(=O)c1ccccc1)OCCONC(=O)c1ccc(-c2ccc3nnn(Cc4ccc5ncccc5c4)c3n2)cc1Cl` [Example 16, 2-(2-chloro-4-(3-(quinolin-6-ylmethyl)-3H-[1,2,3]triazolo[4,5-b]pyridin-5-yl)benzamidooxy)ethyl 2-benzamidoacetate]: 110 to 112 °C and 75 to 100%.
The matching figures for `Cc1ccc2cc(Cn3nnc4ccc(-c5ccc(C(=O)NOCCO)c(Cl)c5)nc43)ccc2n1` [Example 17, 2-chloro-N-(2-hydroxyethoxy)-4-(3-((2-methylquinolin-6-yl)methyl)-3H-[1,2,3]triazolo[4,5-b]pyridin-5-yl) benzamide]: 219 to 222 °C and < 25%.
The molecule `O=C(NOCCO)c1ccc(-c2ccc3nnn(Cc4ccc5ncsc5c4)c3n2)cc1Cl` [Example 18, 4-(3-(benzo[d]thiazol-6-ylmethyl)-3H-[1,2,3]triazolo[4,5-b]pyridin-5-yl)-2-chloro-N-(2-hydroxyethoxy)benzamide] yielded a melting point of 194 to 196 °C. Besides, in series [1] (Table 4A), the inhibition at 0.1 µM was 50 to 75%. The IC50 in series [2] (Table 4A) lay within 25 to 50 nM. Further, in the series on MKN-45 (MKN-45, Table 4A), the inhibition at 0.1 µM lay within 25 to 50% and the 50% growth inhibitory concentration (GI50) lay in the range of 50 to 100 nM.
Consider `CC(C)(CO)ONC(=O)c1ccc(-c2ccc3nnn(Cc4ccc5ncccc5c4)c3n2)cc1Cl` [Example 40, 2-chloro-N-(1-hydroxy-2-methylpropan-2-yloxy)-4-(3-(quinolin-6-ylmethyl)-3H-[1,2,3]triazolo[4,5-b]pyridin-5-yl)benzamide], for which the melting point was in the range of 148 to 150 °C. The inhibition at 0.1 µM in series [1] (Table 4A) was 75 to 100%.
With `Cc1cc(-c2ccc3nnn(Cc4ccc5c(ccc[n+]5[O-])c4)c3n2)ccc1C(=O)NOCC(C)(C)O` [Example 41, N-(2-Hydroxy-2-methyl-propoxy)-2-methyl-4-[3-(1-oxy-quinolin-6-ylmethyl)-3H-[1,2,3]triazolo[4,5-b]pyridin-5-yl]-benzamide], the melting point fell in the range of 160 to 162 °C.
For `C/C(=N\OCCO)c1ccc2nnn(Cc3cc4cccnc4cc3F)c2n1` [Example 61, 1-(3-((7-fluoroquinolin-6-yl)methyl)-3H-[1,2,3]triazolo[4,5-b]pyridin-5-yl) ethanone O-2-hydroxyethyl oxime], the inhibition in series [1] (Table 4A) was in the range of 75 to 100%. Also, the half-maximal inhibitory concentration (IC50) in series [2] (Table 4A) fell in the range of 25 to 50 nM. Moreover, the GI50 in the series on MKN-45 (MKN-45, Table 4A) lay in the range of 50 to 100 nM.
Regarding `C/C(=N\OCCN)c1ccc2nnn(Cc3ccc4ncccc4c3)c2n1` [Example 63, 1-(3-(quinolin-6-ylmethyl)-3H-[1,2,3]triazolo[4,5-b]pyridin-5-yl)ethanone O-2-aminoethyl oxime], in series [1] (Table 4A), the inhibition was 75 to 100%. Further, the half-inhibitory concentration (IC50) in series [2] (Table 4A) is 25 to 50 nM. Further, in the series with MKN-45 (MKN-45, Table 4A), the inhibition at 0.1 µM was < 25% and the concentration for 50% growth inhibition (GI50) was 250 to 1000 nM.
For the molecule `CN(C)CCNC(=O)c1c(F)cc(-c2ccc3ncn(Cc4ccc5ncccc5c4)c3n2)cc1F` [Example 104, N-(2-(dimethylamino)ethyl)-2,6-difluoro-4-(3-(quinolin-6-ylmethyl)-3H-imidazo[4,5-b]pyridin-5-yl) benzamide], in series [1] (Table 4B), the inhibition lay within 50 to 75%. Moreover, in series [2] (Table 4B), the IC50 fell in the range of 100 to 250 nM. Also, in the series on MKN-45 (MKN-45, Table 4B), the inhibition at 0.1 µM is < 25%.
`C[C@@H](O)CNC(=O)c1ccc(-c2ccc3ncn(Cc4ccc5ncccc5c4)c3n2)cc1F` [Example 109, (R)-2-fluoro-N-(2-hydroxypropyl)-4-(3-(quinolin-6-ylmethyl)-3H-imidazo[4,5-b]pyridin-5-yl)benzamide] displayed a melting point of 151 to 158 °C. Further, the inhibition at 0.1 µM in series [1] (Table 4B) was in the range of 75 to 100%.
The matching figures for `C[C@H](O)CNC(=O)c1ccc(-c2ccc3ncn(Cc4ccc5ncccc5c4)c3n2)cc1F` [Example 110, (S)-2-fluoro-N-(2-hydroxypropyl)-4-(3-(quinolin-6-ylmethyl)-3H-imidazo[4,5-b]pyridin-5-yl)benzamide]: 166 to 169 °C and 75 to 100%.
As for `NC(=O)c1ccc(-c2ccc3ncn(Cc4ccc5ncccc5c4)c3n2)cc1Cl` [Example 1008, 2-Chloro-4-(3-(quinolin-6-ylmethyl)-3H-imidazo[4,5-b]pyridin-5-yl)benzamide], the inhibition in series [1] (Table 4C) was in the range of 75 to 100%. In addition, the IC50 in series [2] (Table 4C) was in the range of 50 to 100 nM. In the series with MKN-45 (MKN-45, Table 4C), the inhibition at 0.1 µM is 25 to 50% and the 50% growth inhibitory concentration (GI50) was in the range of 100 to 250 nM.
In the same order, the values of `NC(=O)c1ccc(-c2ccc3ncn(Cc4c(F)cc5ncccc5c4F)c3n2)cc1Cl` [Example 1023, 2-chloro-4-(3-((5,7-difluoroquinolin-6-yl)methyl)-3H-imidazo[4,5-b]pyridin-5-yl)benzamide] are 75 to 100%, < 25 nM, 50 to 75% and < 25 nM.
In the case of `Cc1cc(-c2ccc3ncn(Cc4cc5cccnc5cc4F)c3n2)ccc1C(N)=O` [Example 1025, 4-[3-(7-Fluoro-quinolin-6-ylmethyl)-3H-imidazo[4,5-b]pyridin-5-yl]-2-methyl-benzamide], in series [1] (Table 4C), the inhibition at 0.1 µM fell in the range of 75 to 100%. Moreover, the IC50 in series [2] (Table 4C) is < 25 nM. Besides, the GI50 in the series with MKN-45 (MKN-45, Table 4C) fell in the range of 50 to 100 nM.
`NC(=O)c1ccc(-c2ccc3ncn(Cc4cc5cccnc5cc4F)c3n2)cc1C(F)(F)F` [Example 1026, 4-[3-(7-Fluoro-quinolin-6-ylmethyl)-3H-imidazo[4,5-b]pyridin-5-yl]-2-trifluoromethyl-benzamide] displayed a melting point of 239 to 241 °C. In series [1] (Table 4C), the inhibition at 0.1 µM lay in the range of 25 to 50%.
Take `Cc1cc(-c2ccc3ncn(Cc4c(F)cc5ncccc5c4F)c3n2)ccc1C(N)=O` [Example 1027, 4-[3-(5,7-Difluoro-quinolin-6-ylmethyl)-3H-imidazo[4,5-b]pyridin-5-yl]-2-methyl-benzamide]: the melting point lay in the range of 158 to 160 °C. The inhibition at 0.1 µM in series [1] (Table 4C) fell in the range of 75 to 100%. For the same molecule, the inhibition at 0.1 µM in the series on MKN-45 (MKN-45, Table 4C) is 75 to 100%.
Molecule `CNC(=O)c1ccc(-c2ccc3ncn(Cc4ccc5ncccc5c4)c3n2)cc1C` [Example 1030, 2,N-Dimethyl-4-(3-quinolin-6-ylmethyl-3H-imidazo[4,5-b]pyridin-5-yl)-benzamide] came in with a melting point of 118 to 120 °C. Further, in series [1] (Table 4C), the inhibition at 0.1 µM is < 25%.
The molecule `CNC(=O)c1ccc(-c2ccc3ncn(Cc4ccc5ncccc5c4)c3n2)cn1` [Example 1031, 5-(3-Quinolin-6-ylmethyl-3H-imidazo[4,5-b]pyridin-5-yl)-pyridine-2-carboxylic acid methylamide] gave a melting point of 219 to 221 °C. In addition, the inhibition at 0.1 µM in series [1] (Table 4C) is < 25%.

The record behind these values is patent US9815831B2, “3,5-disubstituted-3H-imidazo[4,5-B]pyridine and 3,5-disubstituted-3H-[1,2,3]triazolo[4,5-B] pyridine compounds as modulators of c-Met protein kinases” (Rhizen Pharmaceuticals SA, priority 2012, dated 2017).
